Test results as given in ChEMBL document CHEMBL4507305, “Data for DCP probe TP-024” (2021).

Legend:
[1] = test system: Tyrosine-protein kinase ABL1 (Homo sapiens), P00519 [E255K]; conditions: Compound concentration 1000.0 nM
[2] = test system: Tyrosine-protein kinase ABL1 (Homo sapiens), P00519 [Q252H]; conditions: Compound concentration 1000.0 nM
[3] = molecular target: Atypical kinase COQ8B, mitochondrial (Homo sapiens) (UniProt Q96D53); conditions: Compound concentration 1000.0 nM
[4] = molecular target: NUAK family SNF1-like kinase 1 (Homo sapiens) (UniProt O60285); conditions: Compound concentration 1000.0 nM
[5] = molecular target: Serine/threonine-protein kinase B-raf (Homo sapiens) (UniProt P15056); conditions: Compound concentration 1000.0 nM
[6] = molecular target: Serine/threonine-protein kinase BRSK1 (Homo sapiens) (UniProt Q8TDC3); conditions: Compound concentration 1000.0 nM
[7] = molecular target: Cyclin-dependent kinase 11B (Homo sapiens) (UniProt P21127); conditions: Compound concentration 1000.0 nM
[8] = molecular target: Cyclin-dependent kinase 4 (Homo sapiens) (UniProt P11802); conditions: Compound concentration 1000.0 nM
[9] = molecular target: Cyclin-dependent kinase-like 3 (Homo sapiens) (UniProt Q8IVW4); conditions: Compound concentration 1000.0 nM
[10] = molecular target: Macrophage colony-stimulating factor 1 receptor (Homo sapiens) (UniProt P07333); conditions: Compound concentration 1000.0 nM
[11] = molecular target: Casein kinase I isoform alpha (Homo sapiens) (UniProt P48729); conditions: Compound concentration 1000.0 nM
Sequence of Casein kinase I isoform alpha (Homo sapiens) (P48729 2-337 limits assumed): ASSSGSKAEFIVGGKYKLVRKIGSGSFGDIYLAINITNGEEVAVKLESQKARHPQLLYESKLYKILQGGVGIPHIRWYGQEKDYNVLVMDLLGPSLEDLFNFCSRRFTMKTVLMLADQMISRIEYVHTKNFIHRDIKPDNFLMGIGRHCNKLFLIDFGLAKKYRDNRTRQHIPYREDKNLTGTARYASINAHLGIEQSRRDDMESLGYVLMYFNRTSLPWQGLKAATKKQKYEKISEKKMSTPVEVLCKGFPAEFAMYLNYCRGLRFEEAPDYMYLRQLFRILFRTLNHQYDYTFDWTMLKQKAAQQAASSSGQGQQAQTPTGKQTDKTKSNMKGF

[12] = molecular target: Casein kinase II subunit alpha' (Homo sapiens) (UniProt P19784); conditions: Compound concentration 1000.0 nM
Sequence of Casein kinase II subunit alpha' (Homo sapiens) (P19784 whole entry, looked up): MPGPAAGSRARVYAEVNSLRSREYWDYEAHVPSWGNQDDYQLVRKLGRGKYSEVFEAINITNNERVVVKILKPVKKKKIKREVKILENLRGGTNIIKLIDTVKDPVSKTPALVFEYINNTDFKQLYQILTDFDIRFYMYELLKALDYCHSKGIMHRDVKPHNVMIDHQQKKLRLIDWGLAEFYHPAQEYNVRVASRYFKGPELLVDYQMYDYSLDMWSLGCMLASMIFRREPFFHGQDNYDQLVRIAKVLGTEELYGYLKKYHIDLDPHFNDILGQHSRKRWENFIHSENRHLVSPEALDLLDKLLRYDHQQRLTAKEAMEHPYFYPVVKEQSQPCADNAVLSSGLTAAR

[13] = molecular target: Megakaryocyte-associated tyrosine-protein kinase (Homo sapiens) (UniProt P42679); conditions: Compound concentration 1000.0 nM
[14] = molecular target: Death-associated protein kinase 1 (Homo sapiens) (UniProt P53355); conditions: Compound concentration 1000.0 nM
[15] = molecular target: Serine/threonine-protein kinase DCLK1 (Homo sapiens) (UniProt O15075); conditions: Compound concentration 1000.0 nM
[16] = test system: Epidermal growth factor receptor (Homo sapiens), P00533 [UNDEFINED MUTATION]; conditions: Compound concentration 1000.0 nM
[17] = molecular target: Eukaryotic translation initiation factor 2-alpha kinase 1 (Homo sapiens) (UniProt Q9BQI3); conditions: Compound concentration 1000.0 nM
[18] = molecular target: Ephrin type-A receptor 1 (Homo sapiens) (UniProt P21709); conditions: Compound concentration 1000.0 nM
[19] = molecular target: Receptor tyrosine-protein kinase erbB-2 (Homo sapiens) (UniProt P04626); conditions: Compound concentration 1000.0 nM
[20] = molecular target: Focal adhesion kinase 1 (Homo sapiens) (UniProt Q05397); conditions: Compound concentration 1000.0 nM
[21] = molecular target: Fibroblast growth factor receptor 3 (Homo sapiens) (UniProt P22607); conditions: Compound concentration 1000.0 nM
[22] = molecular target: Serine/threonine-protein kinase haspin (Homo sapiens) (UniProt Q8TF76); conditions: Compound concentration 1000.0 nM
[23] = molecular target: Serine/threonine-protein kinase ICK (Homo sapiens) (UniProt Q9UPZ9); conditions: Compound concentration 1000.0 nM
[24] = molecular target: Tyrosine-protein kinase JAK1 (Homo sapiens) (UniProt P23458); conditions: Compound concentration 1000.0 nM
[25] = molecular target: Mitogen-activated protein kinase 10 (Homo sapiens) (UniProt P53779); conditions: Compound concentration 1000.0 nM
Sequence of Mitogen-activated protein kinase 10 (Homo sapiens) (P53779 whole entry): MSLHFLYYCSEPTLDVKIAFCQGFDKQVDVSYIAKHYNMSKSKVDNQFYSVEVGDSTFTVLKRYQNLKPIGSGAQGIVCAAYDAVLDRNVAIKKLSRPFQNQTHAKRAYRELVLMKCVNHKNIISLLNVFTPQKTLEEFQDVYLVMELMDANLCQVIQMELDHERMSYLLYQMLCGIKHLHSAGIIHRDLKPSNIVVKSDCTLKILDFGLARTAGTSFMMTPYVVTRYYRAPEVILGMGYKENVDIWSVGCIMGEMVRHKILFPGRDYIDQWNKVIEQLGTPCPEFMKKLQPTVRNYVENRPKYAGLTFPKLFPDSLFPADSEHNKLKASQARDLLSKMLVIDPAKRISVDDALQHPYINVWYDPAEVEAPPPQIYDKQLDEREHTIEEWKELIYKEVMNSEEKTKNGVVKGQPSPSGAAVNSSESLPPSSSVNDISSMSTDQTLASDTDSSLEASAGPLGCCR

[26] = test system: Mast/stem cell growth factor receptor Kit (Homo sapiens), P10721 [V559D,T670I]; conditions: Compound concentration 1000.0 nM
[27] = molecular target: LIM domain kinase 2 (Homo sapiens) (UniProt P53671); conditions: Compound concentration 1000.0 nM
Sequence of LIM domain kinase 2 (Homo sapiens) (P53671 whole entry, looked up, the tested form may be a part): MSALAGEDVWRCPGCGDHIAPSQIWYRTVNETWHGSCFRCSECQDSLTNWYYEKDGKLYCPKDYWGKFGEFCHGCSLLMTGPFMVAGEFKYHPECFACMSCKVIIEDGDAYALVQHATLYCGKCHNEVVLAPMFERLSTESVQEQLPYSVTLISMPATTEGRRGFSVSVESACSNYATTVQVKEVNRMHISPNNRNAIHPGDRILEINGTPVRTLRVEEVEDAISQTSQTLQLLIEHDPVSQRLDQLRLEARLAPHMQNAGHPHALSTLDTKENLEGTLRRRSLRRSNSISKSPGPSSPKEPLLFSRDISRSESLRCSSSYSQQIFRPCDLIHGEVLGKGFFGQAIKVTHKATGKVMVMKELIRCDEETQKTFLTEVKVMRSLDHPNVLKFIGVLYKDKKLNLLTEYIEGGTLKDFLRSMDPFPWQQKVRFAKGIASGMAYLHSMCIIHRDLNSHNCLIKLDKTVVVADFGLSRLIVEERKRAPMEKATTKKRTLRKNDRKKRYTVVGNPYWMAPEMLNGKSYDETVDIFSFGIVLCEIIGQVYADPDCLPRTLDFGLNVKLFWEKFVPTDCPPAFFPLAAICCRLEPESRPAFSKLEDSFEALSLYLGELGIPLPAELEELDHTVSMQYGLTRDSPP

[28] = molecular target: Dual specificity mitogen-activated protein kinase kinase 1 (Homo sapiens) (UniProt Q02750); conditions: Compound concentration 1000.0 nM
[29] = molecular target: Dual specificity mitogen-activated protein kinase kinase 5 (Homo sapiens) (UniProt Q13163); conditions: Compound concentration 1000.0 nM
[30] = test system: Hepatocyte growth factor receptor (Homo sapiens), P08581 [M1250T]; conditions: Compound concentration 1000.0 nM
[31] = molecular target: Dual specificity mitogen-activated protein kinase kinase 7 (Homo sapiens) (UniProt O14733); conditions: Compound concentration 1000.0 nM
Sequence of Dual specificity mitogen-activated protein kinase kinase 7 (Homo sapiens) (O14733 whole entry): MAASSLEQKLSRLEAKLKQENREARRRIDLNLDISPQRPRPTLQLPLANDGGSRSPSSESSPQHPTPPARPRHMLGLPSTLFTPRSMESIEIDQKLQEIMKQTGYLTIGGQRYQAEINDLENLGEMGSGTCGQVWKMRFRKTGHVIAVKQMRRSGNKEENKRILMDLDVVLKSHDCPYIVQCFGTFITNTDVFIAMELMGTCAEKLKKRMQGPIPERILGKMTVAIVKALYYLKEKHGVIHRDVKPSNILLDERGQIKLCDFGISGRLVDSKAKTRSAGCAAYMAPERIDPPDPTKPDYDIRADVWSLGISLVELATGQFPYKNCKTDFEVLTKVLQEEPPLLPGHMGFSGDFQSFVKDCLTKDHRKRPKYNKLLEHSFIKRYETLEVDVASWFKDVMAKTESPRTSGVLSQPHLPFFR

[32] = molecular target: Serine/threonine-protein kinase PAK 3 (Homo sapiens) (UniProt O75914); conditions: Compound concentration 1000.0 nM
[33] = molecular target: Membrane-associated tyrosine- and threonine-specific cdc2-inhibitory kinase (Homo sapiens) (UniProt Q99640); conditions: Compound concentration 1000.0 nM
[34] = molecular target: Serine/threonine-protein kinase RIO3 (Homo sapiens) (UniProt O14730); conditions: Compound concentration 1000.0 nM
[35] = molecular target: Ribosomal protein S6 kinase beta-1 (Homo sapiens) (UniProt P23443); conditions: Compound concentration 1000.0 nM
[36] = molecular target: Serine/threonine-protein kinase Sgk3 (Homo sapiens) (UniProt Q96BR1); conditions: Compound concentration 1000.0 nM
[37] = molecular target: SNF-related serine/threonine-protein kinase (Homo sapiens) (UniProt Q9NRH2); conditions: Compound concentration 1000.0 nM
Sequence of SNF-related serine/threonine-protein kinase (Homo sapiens) (Q9NRH2 whole entry): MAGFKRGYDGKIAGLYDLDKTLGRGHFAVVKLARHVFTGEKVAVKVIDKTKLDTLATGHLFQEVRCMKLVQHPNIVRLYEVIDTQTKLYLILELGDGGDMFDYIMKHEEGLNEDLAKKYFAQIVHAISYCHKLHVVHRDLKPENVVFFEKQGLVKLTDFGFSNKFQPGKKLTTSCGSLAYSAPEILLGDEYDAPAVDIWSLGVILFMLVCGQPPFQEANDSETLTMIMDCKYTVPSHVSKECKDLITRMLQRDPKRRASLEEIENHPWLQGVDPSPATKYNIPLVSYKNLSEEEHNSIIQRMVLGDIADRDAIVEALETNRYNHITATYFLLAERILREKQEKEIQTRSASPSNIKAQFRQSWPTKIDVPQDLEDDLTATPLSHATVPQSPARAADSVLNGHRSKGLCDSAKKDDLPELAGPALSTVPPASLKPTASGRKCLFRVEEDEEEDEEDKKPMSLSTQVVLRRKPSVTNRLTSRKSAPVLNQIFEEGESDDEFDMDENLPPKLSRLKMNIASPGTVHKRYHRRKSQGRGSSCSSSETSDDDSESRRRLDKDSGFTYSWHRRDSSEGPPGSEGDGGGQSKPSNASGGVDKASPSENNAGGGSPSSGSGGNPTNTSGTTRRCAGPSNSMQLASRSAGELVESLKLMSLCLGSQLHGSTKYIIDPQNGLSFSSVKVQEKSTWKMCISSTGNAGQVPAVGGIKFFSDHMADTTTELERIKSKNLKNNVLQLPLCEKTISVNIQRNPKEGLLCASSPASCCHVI

[38] = molecular target: Tyrosine-protein kinase SYK (Homo sapiens) (UniProt P43405); conditions: Compound concentration 1000.0 nM
[39] = molecular target: Tyrosine-protein kinase Tec (Homo sapiens) (UniProt P42680); conditions: Compound concentration 1000.0 nM
[40] = molecular target: Serine/threonine-protein kinase ULK1 (Homo sapiens) (UniProt O75385); conditions: Compound concentration 1000.0 nM
[41] = molecular target: Mitogen-activated protein kinase kinase kinase 19 (Homo sapiens) (UniProt Q56UN5); conditions: Compound concentration 1000.0 nM
[42] = molecular target: Tyrosine-protein kinase ZAP-70 (Homo sapiens) (UniProt P43403); conditions: Compound concentration 1000.0 nM
Sequence of Tyrosine-protein kinase ZAP-70 (Homo sapiens) (P43403 whole entry): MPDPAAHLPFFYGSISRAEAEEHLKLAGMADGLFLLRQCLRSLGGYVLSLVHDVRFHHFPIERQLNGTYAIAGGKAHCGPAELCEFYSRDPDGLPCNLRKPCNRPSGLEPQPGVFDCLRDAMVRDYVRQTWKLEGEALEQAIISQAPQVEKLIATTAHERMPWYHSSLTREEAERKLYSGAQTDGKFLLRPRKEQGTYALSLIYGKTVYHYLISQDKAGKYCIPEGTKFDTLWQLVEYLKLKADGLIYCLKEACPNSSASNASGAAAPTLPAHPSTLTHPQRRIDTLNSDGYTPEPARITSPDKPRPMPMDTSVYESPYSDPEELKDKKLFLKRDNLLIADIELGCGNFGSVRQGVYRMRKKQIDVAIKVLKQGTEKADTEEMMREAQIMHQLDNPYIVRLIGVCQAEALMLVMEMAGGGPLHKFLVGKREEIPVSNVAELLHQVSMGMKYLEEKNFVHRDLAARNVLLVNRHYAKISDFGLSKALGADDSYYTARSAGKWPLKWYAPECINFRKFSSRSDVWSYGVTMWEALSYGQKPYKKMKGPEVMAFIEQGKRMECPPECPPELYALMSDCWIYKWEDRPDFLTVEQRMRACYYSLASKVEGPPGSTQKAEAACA

[43] = molecular target: D(2) dopamine receptor (Homo sapiens) (UniProt P14416); conditions: Compound concentration 10.0 uM
[44] = molecular target: Delta-type opioid receptor (Homo sapiens) (UniProt P41143); conditions: Compound concentration 10.0 uM
Sequence of Delta-type opioid receptor (Homo sapiens) (P41143 whole entry): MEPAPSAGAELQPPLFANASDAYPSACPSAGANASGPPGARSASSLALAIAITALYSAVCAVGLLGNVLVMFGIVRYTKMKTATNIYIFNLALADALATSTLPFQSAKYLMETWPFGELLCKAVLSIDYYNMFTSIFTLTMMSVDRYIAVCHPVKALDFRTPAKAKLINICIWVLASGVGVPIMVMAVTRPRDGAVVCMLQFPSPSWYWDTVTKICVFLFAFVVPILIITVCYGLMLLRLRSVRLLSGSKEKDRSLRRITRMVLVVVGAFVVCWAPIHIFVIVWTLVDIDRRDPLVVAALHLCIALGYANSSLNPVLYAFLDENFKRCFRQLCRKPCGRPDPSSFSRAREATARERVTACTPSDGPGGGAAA

[45] = molecular target: Histamine H1 receptor (Homo sapiens) (UniProt P35367); conditions: Compound concentration 10.0 uM
Sequence of Histamine H1 receptor (Homo sapiens) (P35367 whole entry): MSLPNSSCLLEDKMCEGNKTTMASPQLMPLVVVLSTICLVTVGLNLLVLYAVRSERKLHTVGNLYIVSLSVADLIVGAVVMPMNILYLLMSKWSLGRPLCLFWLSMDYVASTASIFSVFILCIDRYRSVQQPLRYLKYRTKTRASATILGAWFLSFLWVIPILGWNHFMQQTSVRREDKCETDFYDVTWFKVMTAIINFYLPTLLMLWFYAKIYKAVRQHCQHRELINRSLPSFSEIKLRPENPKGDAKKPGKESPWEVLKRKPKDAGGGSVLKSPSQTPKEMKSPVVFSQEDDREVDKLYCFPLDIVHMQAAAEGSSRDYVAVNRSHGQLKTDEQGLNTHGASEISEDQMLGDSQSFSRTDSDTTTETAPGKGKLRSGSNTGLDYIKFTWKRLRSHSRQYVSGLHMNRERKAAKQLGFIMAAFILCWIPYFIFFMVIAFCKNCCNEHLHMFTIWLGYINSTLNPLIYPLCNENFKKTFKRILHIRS

Rattus norvegicus = species: Rattus norvegicus; conditions: Compound concentration 10.0 uM

Sequence of Atypical kinase COQ8B, mitochondrial (Homo sapiens) (Q96D53 whole entry): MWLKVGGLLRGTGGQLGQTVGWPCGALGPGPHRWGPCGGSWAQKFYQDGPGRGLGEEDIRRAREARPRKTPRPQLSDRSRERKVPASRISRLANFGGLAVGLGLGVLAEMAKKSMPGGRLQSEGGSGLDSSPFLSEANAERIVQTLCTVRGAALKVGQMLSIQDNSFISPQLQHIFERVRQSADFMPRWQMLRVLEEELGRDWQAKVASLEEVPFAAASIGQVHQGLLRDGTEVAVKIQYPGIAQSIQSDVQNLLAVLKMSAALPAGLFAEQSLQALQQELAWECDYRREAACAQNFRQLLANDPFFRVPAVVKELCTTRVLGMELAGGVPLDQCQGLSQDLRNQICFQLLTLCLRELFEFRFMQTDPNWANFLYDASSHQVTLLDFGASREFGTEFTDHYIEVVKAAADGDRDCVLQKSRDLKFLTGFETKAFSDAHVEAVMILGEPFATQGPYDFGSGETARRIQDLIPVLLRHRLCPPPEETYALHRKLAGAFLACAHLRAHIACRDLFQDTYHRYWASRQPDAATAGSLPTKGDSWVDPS

Cc1nc(Cc2cccc(C(F)(F)F)c2)sc1-c1ccc(C(N)=O)nc1 [TP-024n]
inactive: residual activity [1] 85% | residual activity [2] 100% | residual activity [3] 100% | residual activity [4] 86% | residual activity [5] 73% | residual activity [6] 100% | residual activity [7] 97% | residual activity [8] 100% | residual activity [9] 100% | residual activity [10] 100% | residual activity [11] 99% | residual activity [12] 96% | residual activity [13] 100% | residual activity [14] 100% | residual activity [15] 81% | residual activity [16] 100% | residual activity [17] 100% | residual activity [18] 81% | residual activity [19] 100% | residual activity [20] 95% | residual activity [21] 100% | residual activity [22] 100% | residual activity [23] 100% | residual activity [24] 86% | residual activity [25] 100% | residual activity [26] 91% | residual activity [27] 98% | residual activity [28] 100% | residual activity [29] 85% | residual activity [30] 92% | residual activity [31] 100% | residual activity [32] 100% | residual activity [33] 67% | residual activity [34] 100% | residual activity [35] 83% | residual activity [36] 100% | residual activity [37] 84% | residual activity [38] 100% | residual activity [39] 100% | residual activity [40] 100% | residual activity [41] 100% | residual activity [42] 93% | inhibition [43] -5.26% | inhibition [44] 4.01% | inhibition [45] 9.3% | inhibition (Rattus norvegicus) 4.9%

Cc1cc(-n2nc(Cc3cc(F)cc(C(F)(F)F)c3)nc2C)ccc1C(N)=O [TP-024]
inactive: residual activity [1] 93% | residual activity [2] 100% | residual activity [3] 100% | residual activity [4] 100% | residual activity [5] 86% | residual activity [6] 100% | residual activity [7] 100% | residual activity [8] 100% | residual activity [9] 83% | residual activity [10] 100% | residual activity [11] 100% | residual activity [12] 91% | residual activity [13] 100% | residual activity [14] 99% | residual activity [15] 100% | residual activity [16] 100% | residual activity [17] 100% | residual activity [18] 100% | residual activity [19] 99% | residual activity [20] 100% | residual activity [21] 100% | residual activity [22] 100% | residual activity [23] 100% | residual activity [24] 100% | residual activity [25] 100% | residual activity [26] 100% | residual activity [27] 95% | residual activity [28] 100% | residual activity [29] 100% | residual activity [30] 80% | residual activity [31] 100% | residual activity [32] 100% | residual activity [33] 88% | residual activity [34] 100% | residual activity [35] 100% | residual activity [36] 80% | residual activity [37] 100% | residual activity [38] 87% | residual activity [39] 100% | residual activity [40] 100% | residual activity [41] 98% | residual activity [42] 82% | inhibition [43] 0.68% | inhibition [44] -1.45% | inhibition [45] 8.06% | inhibition (Rattus norvegicus) 7.23%
